Reference: patent publication US7371776B2, “Methods and compositions for treating cancer” (Mars, Incorporated, priority 2004, dated 2008)

Columns and labels:
Assay type in all cases: cell-based, human
AIN4 cells = test: Crystal violet cellular proliferation assay; details: 100 μg/mL
Procedure: The 184A1N4 cell line (hereinafter “A1N4”) is a non-tumorigenic cell line derived from primary cultures of HMECs and immortalized with benzo(a)pyrene (provided by Dr. M. R. Stampfer, University of California, Berkley, Calif.) (Stampfer, M. R. et al., Proc. Natl. Acad. Sci. USA, 82: 2394-2398, 1985). These cells were maintained in IMEM medium with 0.5% FBS, 0.5 μg/mL of hydrocortisone (Biofluids), 5 μg/mL insulin and 10 ng/mL of EGF.
(§1) One×10^3 cells per well were seeded in 96 well dishes (Coming Costar, Cambridge, Mass.). Primary cultures of HMECs, A1N4 and 184B5 cells were evaluated at two different cell densities (seeded at 1×10^3 and 2×10^3 per well). After 24 hours of cell attachment, cells in triplicate wells were treated with pentamer at a concentration of 100 μg/mL. The cells on the same plate were treated with corresponding controls: (i) media containing DMSO, and (ii) media with no additions.
Cells were treated for 1, 2, 3, 6, 8 and 10 days, but in some cases, the samples were collected at days 2, 3, 4, 7 and 10 post-treatment. Each treatment was conducted in triplicate. […] The optical density (OD) of samples was read at 550 nm on an Ultramark Microplate Imagining System (BioRad, Philadelphia, Pa.). […] Statistical significance was determined using the t test analysis.

FKHR = test: Confirmation of LPS results by immunoblotting, MDA MB-231 cells
Procedure: (§2) The proteins affected by pentamer, as detected by LPS, were analyzed further by immunoblotting. Antibodies against the following proteins were used: Cdc2 (Tyr15), FKHR (Ser256), p53 (Ser37, Ser46 and Ser392), PKC-δ (Ser643), PKC-θ (Ser643/676), pRb (Ser795 and Ser807/811), SAPK/JNK (Thr183/Tyr185) and Stat 5 (Tyr694) (all antibodies were obtained from Cell Signaling).
(§3) Protein pellets from pentamer-treated MDA MB-231, MDA MB-468 and MCF-7 cells and corresponding DMSO-treated controls were lysed in PBS with 1% SDS and sonicated for 15 seconds at a power of five watts. Samples were then centrifuged at 10,000 rpm and supernatants transferred into clean tubes. Protein concentration was determined as descried above. Ten jig of each protein sample was separated by PAGE on 4-20% gradient gels (BioRad, Philadelphia, Pa.). Gels were either transferred to PVDF membranes (BioRad) or P-FILM membrane (stacks of 10 membranes) according to the manufacturer's instructions (20/20 Gene Systems). PVDF membranes were blocked for 1 hour in 0.5% casein solution (Vector Laboratories, Burlingame, Calif.), prior to incubation with primary antibodies. […] The membranes were incubated overnight at 4° C. in 1:500 dilutions of primary antibodies, washed three times in TBST for five minutes, incubated in HRP-conjugated secondary antibodies, washed again and incubated in ECL Plus Reagent (Amersham). Signals were visualized on BIOMAX MR film (Kodak, Rochester, N.Y.). Following incubation with primary antibodies, membranes were incubated in anti-GAPDH antibody (1:500 dilution; Chemicon, Temecula, Calif.). The presence of this protein was visualized with secondary antibody conjugated to alkaline phosphatase DuoLux substrate (Vector Laboratories).
(§4) As a control, the PVDF membranes probed for Cdc2, FKHR, p53, and pRb were stripped according to manufacturer's instructions (Cell Signaling). After striping, membranes were washed four times for five minutes each in TBST buffer, blocked as described above, washed again and incubated in primary antibodies overnight at 4° C. The primary antibodies used were anti-total Cdc2 (1:1000 dilution, Cell Signaling), anti-total FKHR (1:1000 dilution, Cell Signaling), anti-endogenous p53 (1:1000, Cell Signaling) and anti-endogenous pRb (1:1000, Santa Cruz). The next day, membranes were washed and incubated in HRP conjugated secondary antibodies, washed again and incubated in ECL Plus Reagent (Amersham). Signals were detected as previously described. To test equality of loading, membranes were probed with anti-GAPDH antibody (1:500 dilution; Chemicon, Temecula, Calif.) as described above.

Cdc2 = test: as above
Procedure: as §2, §3, §4

pRb = test: as above
Procedure: as §2, §3, §4

p53 = test: as above
Procedure: as §2, §3, §4

SKBR-3 cells = test: Crystal violet cellular proliferation assay; details: 100 μg/mL, ten days after treatment
Procedure: (§5) Human breast cancer cell lines MDA MB-231, MDA MB-436, MD MB-468, SKBR-3 and MCF-7 were obtained from the Lombardi Comprehensive Cancer Center (LCC) Tissue Culture Shared Resource. MDA MB-231, MDA MB-436, MD MB-468 and SKBR-3 are p53-mutated estrogen receptor (ER)-negative cells. MDA MB-231 also contains a mutation in the K-ras oncogene. The MCF-7 cell line is ER-positive and non-mutated for p53. The cells were grown in complete media containing DMEM (Gibco-BRL, Gaithersburg, Md.) supplemented with 10% fetal bovine serum (FBS) (Quality Biological, Gaithersburg, Md.). In addition, media for MCF-7 contained non essential amino acids (Gibco-BRL, Gaithersburg, Md.).
as §1
(§6) Cells were treated for 1, 2, 3, 6, 8 and 10 days, but in some cases, the samples were collected at days 2, 3, 4, 7 and 10 post-treatment. Each treatment was conducted in triplicate. Samples were collected at each time point as follows: media was removed and 50 μL of crystal violet solution (0.1% of crystal violet in 0.1 M citric acid solution) was added to each well at room temperature and plates were incubated for 15 minutes, followed by washing with deionized water. Plates were dried at room temperature overnight. The following day, plates were destained by adding 100 μL of 0.1 M sodium citrate solution into each well. Plates were incubated for one hour. The optical density (OD) of samples was read at 550 nm on an Ultramark Microplate Imagining System (BioRad, Philadelphia, Pa.). The experiment was repeated twice resulting in an average of nine measurements per sample. Statistical significance was determined using the t test analysis.

MDA MB-468 cells = test: Crystal violet cellular proliferation assay; details: 100 μg/mL, ten days after treatment
Procedure: as §5, §1, §6

MCF-7 cells = test: Crystal violet cellular proliferation assay; details: MCF-7 (wild type p53, ER-positive); 100 μg/mL
Procedure: as §5, §1, §6

MDA MB-231 cells = test: Crystal violet cellular proliferation assay; details: 100 μg/mL, ten days after treatment
Procedure: as §5, §1, §6

MDA MB-436 cells = test: Crystal violet cellular proliferation assay; details: 100 μg/mL, ten days after treatment
Procedure: as §5, §1, §6

[1] = LPS analysis and PVDF membrane experiments

With `Oc1cc(O)c2c(c1)O[C@H](c1ccc(O)c(O)c1)[C@H](O)[C@H]2c1c(O)cc(O)c2c1O[C@H](c1ccc(O)c(O)c1)[C@H](O)[C@H]2c1c(O)cc(O)c2c1O[C@H](c1ccc(O)c(O)c1)[C@H](O)[C@H]2c1c(O)cc(O)c2c1O[C@H](c1ccc(O)c(O)c1)[C@H](O)[C@H]2c1c(O)cc(O)c2c1O[C@H](c1ccc(O)c(O)c1)[C@H](O)C2` [pentamer, pentameric procyanidin] the “growth inhibited, in comparison to DMSO-treated controls” value (shortened to “growth inhibited, in comparison”) (AIN4 cells) was 7.3 fold, the “total protein expression of FKHR” value (FKHR; [1]) was “not affected” and the “effect on phosphorylated form of FKHR (Ser256)” value (FKHR; immunoblot, 48 and 72 hrs) was “had an effect”. For the same molecule, the “total protein expression of Cdc2” value (Cdc2; [1]) was “not affected”, the “effect on phosphorylated form of Cdc2 (Tyr15)” value (Cdc2; immunoblot, 48 and 72 hrs) was “had an effect” and the “pRb, both total and phospho-specific sites” value (pRb; PVDF membrane reprobed) was “affected”. For the same molecule, the “effect on phosphorylated form of pRb (Ser795 and Ser807/811)” value (pRb; immunoblot, 48 and 72 hr) was “had an effect”, the “total protein expression of p53” value (p53; [1]) was “not affected” and the “effect on phosphorylated form of p53 (Ser37, Ser46 and Ser392)” value (p53; immunoblot, 72 hrs) was “had an effect”. For the same molecule, the “growth inhibited, in comparison” value (SKBR-3 cells) was 5.5 fold, the “growth inhibited, in comparison” value (MDA MB-468 cells) was 4 fold and the growth inhibition (MCF-7 cells) was 5.6 fold. The “growth inhibited, in comparison” value (MDA MB-231 cells) was 5 fold and the “growth inhibited, in comparison” value (MDA MB-436 cells) was 4.1 fold.
